Data published in patent US20110009399A1, “ORGANIC COMPOUNDS” (priority 2007, published 2011).

biological target: T1, renin (Homo sapiens, UniProt P00797); test: in vitro test of Nussberger et al.: formation of angiotensin I in human plasma, radioimmunoassay; type: biochemical; settings: values given as 'in the range of about', read-out: IC50, inhibition of the formation of angiotensin I
T1 construct: This test measures the formation of angiotensin I in human plasma; from tissue; host or cells: human plasma
T1 sequence (P00797 67-406): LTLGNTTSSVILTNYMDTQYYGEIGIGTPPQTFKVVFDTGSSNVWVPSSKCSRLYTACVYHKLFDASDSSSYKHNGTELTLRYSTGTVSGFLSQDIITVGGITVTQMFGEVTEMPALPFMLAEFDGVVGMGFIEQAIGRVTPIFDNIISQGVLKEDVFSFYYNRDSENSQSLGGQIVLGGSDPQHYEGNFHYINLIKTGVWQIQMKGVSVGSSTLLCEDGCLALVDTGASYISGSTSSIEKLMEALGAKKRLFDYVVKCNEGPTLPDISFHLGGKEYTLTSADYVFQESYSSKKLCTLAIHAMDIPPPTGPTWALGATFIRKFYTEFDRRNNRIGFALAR
Protocol: The effect of renin inhibitors is detected inter alia experimentally by means of in vitro tests where the reduction in the formation of angiotensin I is measured in various systems (human plasma, purified human renin together with synthetic or natural renin substrate). The following in vitro test of Nussberger et al. (1987) J. Cardiovascular Pharmacol., Vol. 9, pp. 39-44, is used inter alia. This test measures the formation of angiotensin I in human plasma. The amount of angiotensin I formed is determined in a subsequent radioimmunoassay. The effect of inhibitors on the formation of angiotensin I is tested in this system by adding various concentrations of these substances. […] The compounds of the present invention show inhibitory effects in the in vitro systems at minimal concentrations of about 10^−6 to about 10^−10 mol/l.

IC50, 1 to 20 nM:
COCCCN1CCOc2ccc(CO[C@H]3CNCC[C@@]34OCc3cc(COC[C@@H](C)COC)ccc34)cc21 [Example 7, (1S,3′S)-5-({[(2S)-3-methoxy-2-methylpropyl]oxy}methyl)-3′-{[4-(3-methoxy-propyl)-3,4-dihydro-2H-1,4-benzoxazin-6-yl]methoxy}-3H-spiro[2-benzofuran-1,4′-piperidine]]
CCO[C@H](C)COCc1ccc2c(c1)CCO[C@@]21CCNC[C@@H]1OCc1ccc2c(c1)N(CCCOC)CCO2 [Example 2, (1S,3′S)-6-({[(2R)-2-Ethoxypropyl]oxy}methyl)-3′-{[4-(3-methoxypropyl)-3,4-dihydro-2H-1,4-benzoxazin-6-yl]methoxy}-3,4-dihydrospiro[isochromene-1,4′-piperidine]]
CCOC(C)COCc1ccc2c(c1)OCCOC21CCNCC1OCc1ccc2c(c1)N(CCCOC)CCO2 [Example 14, (3′S,5S)-8-({[(2R)-2-Ethoxypropyl]oxy}methyl)-3′-{[4-(3-methoxypropyl)-3,4-dihydro-2H-1,4-benzoxazin-6-yl]methoxy}-2,3-dihydrospiro[1,4-benzo-dioxepine-5,4′-piperidine]]
